We go through three molecules from publication PMC12670396, “Crizotinib- or Ceritinib-Conjugated Platinum(IV) Prodrugs As Potent Multiaction Agents Inducing Antiproliferative Effects in 2D and 3D Cancer Cell Models” (Journal of Medicinal Chemistry, 2025).

Each structure is given as a SMILES string.

One data set has as its system NCI-H2228. The data set is described as follows: MTT cytotoxic/antiproliferative activity, 72 h. It counts as cell-based, human. The settings on record: for IC50: NCI-H2228, MTT, 72 h.
For the next data set, the target named is T1, MET (Homo sapiens, UniProt P08581).
T1 construct: Western blot analysis of the phosphorylation state of ALK and MET; endogenous in cells; host or cells: NCI-H2228
The data set is described as follows: Western blot of MET phosphorylation state. It counts as cell-based. Conditions: NCI-H2228 lysates, IC50 concentrations, 24 h. As for the experimental part: (§1) Whereas the signals of pALK and pMET are decreased in the presence of the tested compounds, the overall amount of ALK and MET is not markedly changed.
(§2) NCI-H2228 cells were seeded in 6-well plates at a density of 2 × 10^5 cells/well and incubated overnight. […] The cells were then harvested and lysed using RIPA lysis buffer supplemented with protease and phosphatase inhibitors as recommended by the manufacturer. Protein extracts were resolved with SDS-PAGE, transferred to a PVDF membrane, and the respective proteins were detected with specific antibodies (anti-phosphoALK, anti-ALK, anti-phosphoMET, anti-MET, and anti-GADPH) and HRP-conjugated secondary antibodies. The signals were obtained with SignalFire ECL Reagent and recorded with an Amersham680 reader.

For a further data set, the system named is CT26 or NCI-H2228 cells. The data set is described as follows: Release of ATP (CLSII bioluminescence assay). It counts as cell-based. Conditions: IC50 concentrations, 20 h. Here is the method: ATP release was analyzed using the CLSII bioluminescence assay kit (Roche) after treatment of CT26 or NCI-H2228 cells with the tested compounds at concentrations corresponding to their respective IC50 values (Figure A).
CT26 and NCI-H2228 cells were seeded in 48-well plates at a density of 5 × 10^4 cells/well and grown overnight. […] Then 50 μL of supernatant from the wells was transferred into a 96-well white plate (Corning) and processed using an ATP bioluminescence assay kit CLSII following the manufacturer’s instructions. Luminescence was measured with a SPARK multimode reader (TECAN).

The target of the next data set is T2, ALK (Homo sapiens, UniProt Q9HC35+Q9UM73).
T2 construct: Western blot detection of the ALK phosphorylation state in lysates of NCI-H2228 cells exposed to the tested compounds; endogenous in cells; host or cells: NCI-H2228
The data set is described as follows: Western blot of ALK phosphorylation state. Type of data set: cell-based. Conditions: NCI-H2228 lysates, IC50 concentrations, 24 h. As for the experimental part:
as §1, §2

The test system of the next data set is CT26 cells. The data set is described as follows: Phagocytosis of treated CT26 cells by J774.A1 macrophages. It counts as cell-based, murine. Conditions: CT26 treated at IC50 for 24 h, cocultivated 4 h, J774.A1:CT26 1:2. As for the experimental part: Then, the cells in the samples were stained with CellTracker (red CMTPX; Thermo Fisher Scientific). At the same time, J774.A1 macrophages were stained with CellTracker (green CMFDA; ThermoFisher Scientific). […] Following the coincubation, the cells were harvested and analyzed with flow cytometry (BD FACS Verse). Total cell count was normalized to 3 × 10^4 macrophages. The data were analyzed with FCS Express 7 (DeNovo software; Glendale, CA).

Data set [1] has as its system NCI-H2228 cells. The data set is described as follows: Cell death mode (Annexin V/PI, flow cytometry). Type of data set: cell-based, human. Conditions: NCI-H2228, 3 × IC50, 48 h. From the text: Flow cytometric analysis was used to assess the mode of cell death induced in NCI-H2228 cells by the tested complexes. Annexin V staining was employed to recognize the externalization of phosphatidyl serine, a feature considered an apoptotic marker. Propidium iodide (PI) was used to stain cells with compromised cell membranes (a sign of necrosis). Staurosporine was included in the experiment as a positive control for apoptosis. […] Apoptosis appears to be the leading mode of cell death in the entire group of tested compounds, with a varying distribution of cell populations between early and late apoptosis.
Staurosporine (4 μM; 2 h) was used as a positive control of apoptosis. The cells were then harvested with trypsin and stained with Annexin V-Pacific Blue conjugate (1:20 dilution) and PI (10 μg mL^–1) for 15 min. The samples were analyzed with flow cytometry (FACS Verse), 3 × 10^4 cells were analyzed following the exclusion of cell aggregates, and the data was analyzed with FCS Express 7 (DeNovo software, Glendale, CA).

The subject of data set [2] is NCI-H2228 cells. The data set is described as follows: Cell cycle distribution (PI, flow cytometry). It counts as cell-based, human. The settings on record: NCI-H2228, 2 × IC50, 48 h. Here is the method: The alterations in cell cycle profiles caused by the tested agents in NCI-H2228 cells may offer insight into their anticancer mechanism. To examine these changes, we utilized flow cytometry to analyze the cells treated with the representative agents (Figure and Figure S40).
It appears that the G2/M arrest is a common phenomenon in the crizotinib-containing group of NCI-H2228 cells under the conditions used.
Following 48 h of incubation, the cells were harvested and fixed with 70% ethanol. The next day, the cells were washed with PBS (2×) and stained with propidium iodide (PI) (50 μg mL^–1 with 100 μg mL^–1 RNase A) in Vindel’s solution (10 mM Tris-Cl (pH = 8.0), 10 mM NaCl, 0.1% Triton X-100) for 30 min at 37 °C. Cell cycle distribution was analyzed using flow cytometry (FACS Verse), 3 × 10^4 cells were analyzed following the exclusion of cell aggregates, and the data was analyzed with FCS Express 7 (DeNovo software, Glendale, CA). The results are expressed as MEAN from two experiments.

The nature of data set [3]: Stability in RPMI cell culture medium with serum (HPLC). The settings on record: serum. Here is the method:
Two conditions must be met for Pt(IV) complexes to serve as true prodrugs: they must remain stable in biological fluids and should be activated by reduction within the cancer cells to release the bioactive components in their active form, thereby facilitating the rapid onset of cytotoxic effects. […] The reduction in the area of the HPLC peak of the compounds was monitored as a function of time, and their half-lives were calculated (Table and Figures S26,S27).
The stock solutions were prepared by dissolving the compounds in a 1:9 (v/v) mixture of DMSO and RPMI media. After preparation, the samples were injected and stored at 37 °C throughout the experiment. The final concentration of the complexes used for the experiment is 50–60 μM.

Data set [4] relates to hepatocyte-like cells (HLC). The data set is described as follows: Cytotoxicity in hepatocyte-like cells, sulphorhodamine B assay. It counts as cell-based. The settings on record: hepatocyte-like cells from human pluripotent cells. As for the experimental part: Growth inhibition activity in cancer cell lines was compared with the activity to inhibit the proliferation of normal (noncancerous) cells, namely MRC-5, IMR-90, hTERT-HPNE, and MCF10A cells. Selectivity indexes (SI) were calculated as (IC50 in noncancerous cells)/(average IC50 in cancer cells). […] We further assessed the toxicity of several of the compounds in hepatocyte-like cells (HLC) generated from human pluripotent cells.
Cytotoxicity in hepatocyte-like cells (HLC). STEMdiff Hepatocyte Kit was used to generate HLC from human pluripotent stem cells. Cytotoxicity of several of the tested compounds in HLC was evaluated using the sulphorhodamine B assay.

T1 sequence (P08581 25-1390): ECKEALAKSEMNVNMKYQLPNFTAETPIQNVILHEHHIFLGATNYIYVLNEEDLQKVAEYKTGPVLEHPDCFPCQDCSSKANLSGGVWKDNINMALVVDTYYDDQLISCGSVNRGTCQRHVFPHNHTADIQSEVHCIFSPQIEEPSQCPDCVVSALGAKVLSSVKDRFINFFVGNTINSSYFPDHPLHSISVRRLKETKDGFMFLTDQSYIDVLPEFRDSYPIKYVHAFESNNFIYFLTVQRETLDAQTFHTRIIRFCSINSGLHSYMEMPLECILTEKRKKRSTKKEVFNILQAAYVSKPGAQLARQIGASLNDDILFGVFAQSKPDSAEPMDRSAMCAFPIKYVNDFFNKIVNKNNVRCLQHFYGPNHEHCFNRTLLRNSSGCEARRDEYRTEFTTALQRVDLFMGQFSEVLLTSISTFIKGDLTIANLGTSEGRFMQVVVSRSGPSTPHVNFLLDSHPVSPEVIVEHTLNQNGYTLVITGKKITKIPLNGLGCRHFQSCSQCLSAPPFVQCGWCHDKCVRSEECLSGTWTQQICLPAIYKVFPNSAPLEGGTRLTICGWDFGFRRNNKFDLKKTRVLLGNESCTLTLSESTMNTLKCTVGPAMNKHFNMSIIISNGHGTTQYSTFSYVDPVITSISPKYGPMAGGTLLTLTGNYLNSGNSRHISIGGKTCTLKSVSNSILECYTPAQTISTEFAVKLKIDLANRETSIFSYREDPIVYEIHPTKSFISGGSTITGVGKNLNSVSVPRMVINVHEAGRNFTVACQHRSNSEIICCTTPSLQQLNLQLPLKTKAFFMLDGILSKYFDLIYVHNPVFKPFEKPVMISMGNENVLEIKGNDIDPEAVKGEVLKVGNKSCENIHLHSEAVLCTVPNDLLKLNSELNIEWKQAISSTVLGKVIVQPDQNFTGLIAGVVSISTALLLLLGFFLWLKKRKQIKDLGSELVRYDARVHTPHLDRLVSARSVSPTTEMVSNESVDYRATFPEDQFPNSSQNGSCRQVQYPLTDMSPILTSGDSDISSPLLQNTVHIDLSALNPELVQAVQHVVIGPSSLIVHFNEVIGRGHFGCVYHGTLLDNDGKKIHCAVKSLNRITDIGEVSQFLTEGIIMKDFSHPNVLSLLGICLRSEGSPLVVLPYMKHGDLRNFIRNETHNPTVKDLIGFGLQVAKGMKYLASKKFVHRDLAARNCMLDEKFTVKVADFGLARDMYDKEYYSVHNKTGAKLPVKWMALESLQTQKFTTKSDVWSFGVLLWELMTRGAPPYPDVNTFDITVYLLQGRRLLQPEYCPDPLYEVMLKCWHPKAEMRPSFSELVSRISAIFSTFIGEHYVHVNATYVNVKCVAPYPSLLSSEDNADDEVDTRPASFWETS
T2 sequence (Q9HC35+Q9UM73 fused): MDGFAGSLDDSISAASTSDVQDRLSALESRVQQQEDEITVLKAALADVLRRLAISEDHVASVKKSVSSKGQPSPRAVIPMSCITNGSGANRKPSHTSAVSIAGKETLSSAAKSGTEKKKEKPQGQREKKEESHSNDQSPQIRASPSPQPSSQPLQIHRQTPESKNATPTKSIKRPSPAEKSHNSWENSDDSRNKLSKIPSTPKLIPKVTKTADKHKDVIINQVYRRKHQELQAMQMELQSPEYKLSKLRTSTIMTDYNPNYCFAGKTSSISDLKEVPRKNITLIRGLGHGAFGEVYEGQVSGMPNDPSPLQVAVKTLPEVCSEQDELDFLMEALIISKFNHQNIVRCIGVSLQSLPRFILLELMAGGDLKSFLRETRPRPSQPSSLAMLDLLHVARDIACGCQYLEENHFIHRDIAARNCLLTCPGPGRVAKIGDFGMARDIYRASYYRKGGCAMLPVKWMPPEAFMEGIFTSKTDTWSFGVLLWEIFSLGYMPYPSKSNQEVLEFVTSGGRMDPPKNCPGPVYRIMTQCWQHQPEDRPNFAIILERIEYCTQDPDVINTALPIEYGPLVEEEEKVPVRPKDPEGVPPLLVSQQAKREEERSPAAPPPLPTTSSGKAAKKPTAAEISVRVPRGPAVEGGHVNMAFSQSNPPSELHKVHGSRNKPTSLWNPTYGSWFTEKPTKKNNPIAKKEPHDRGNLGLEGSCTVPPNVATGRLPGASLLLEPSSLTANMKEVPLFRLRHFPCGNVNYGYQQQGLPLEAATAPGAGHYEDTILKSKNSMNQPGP

Molecule `N.N.[Cl][Pt][Cl]` [cisPt, cisplatin, reference compound] came in with an IC50 in the data set on NCI-H2228 of 2.4 ± 0.7 µM. For the same molecule, the “phosphorylation of MET” value on MET is on record as “no visible effect”. Besides, the “ATP released to the medium relative to nontreated cells” value in the data set on CT26 or NCI-H2228 cells was “did not induce a significant release of ATP”. Moreover, at ALK, the “phosphorylation of ALK” value is “no visible effect”.

On to `CC(Oc1cc(-c2cnn(C3CCN(C(=O)[O][Pt]([Cl])([Cl])[O]C(=O)CCCc4ccccc4)CC3)c2)cnc1N)c1c(Cl)ccc(F)c1Cl.N.N` (centres unmarked) [compound 3, ctc-[Pt(NH3)2(crizotinib)(PhB)Cl2]], for which the IC50 is 0.45 ± 0.09 µM in the data set with NCI-H2228 and 5 ± 1 µM in data set [4]. For the same molecule, the “double-stained (phagocytotic) population” value in the data set on CT26 cells is recorded as “significantly increased”. The “mode of cell death” value with NCI-H2228 cells [1] is “apoptotic phenotype”. For the same molecule, the cell cycle arrest result in the data set with NCI-H2228 cells [2] is “induced arrest in the G2/M phase”. Besides, the “stability half-life (t 1/2)” value in [3] worked out at 42 h.

Take `Cc1cc(Nc2ncc(Cl)c(Nc3ccccc3S(=O)(=O)C(C)C)n2)c(OC(C)C)cc1C1CCN(C(=O)[O][Pt]([Cl])([Cl])[O]C(=O)CCCc2ccccc2)CC1.N.N` [compound 7, ctc-[Pt(NH3)2(ceritinib)(PhB)Cl2]]: the IC50 in the data set on NCI-H2228 is 0.07 ± 0.01 µM; in data set [4], 4 ± 1 µM. The “IC50(MIX)/IC50(complex)” value in the data set on NCI-H2228 (NCI-H2228, MIX3/3 or MIX7/7) is reported as 6.3. Also, in the data set on CT26 cells, the “double-stained (phagocytotic) population” value was “significantly increased”. In the data set on NCI-H2228 cells [1], the “mode of cell death” value is recorded as “apoptotic phenotype”. Moreover, the “phosphorylation of MET” value at MET is on record as “inhibit the phosphorylation”. Also, the “ATP released to the medium relative to nontreated cells” value in the data set with CT26 or NCI-H2228 cells came to 2.7 fold. The cell cycle arrest result in the data set on NCI-H2228 cells [2] is recorded as “majority of the population in cells treated with 7 was in the S phase”. Moreover, in data set [3], the “stability half-life (t 1/2)” value was 37 h. Also, at ALK, the “phosphorylation of ALK” value was “inhibit the phosphorylation”.
